US9630947B2, “Therapeutic compounds and related methods of use” (OTSUKA PHARMACEUTICAL CO., LTD., priority 2009, dated 2017)

Target: T1, purified STEP46 enzyme (Homo sapiens, UniProt P54829)
T1 sequence (P54829 1-565): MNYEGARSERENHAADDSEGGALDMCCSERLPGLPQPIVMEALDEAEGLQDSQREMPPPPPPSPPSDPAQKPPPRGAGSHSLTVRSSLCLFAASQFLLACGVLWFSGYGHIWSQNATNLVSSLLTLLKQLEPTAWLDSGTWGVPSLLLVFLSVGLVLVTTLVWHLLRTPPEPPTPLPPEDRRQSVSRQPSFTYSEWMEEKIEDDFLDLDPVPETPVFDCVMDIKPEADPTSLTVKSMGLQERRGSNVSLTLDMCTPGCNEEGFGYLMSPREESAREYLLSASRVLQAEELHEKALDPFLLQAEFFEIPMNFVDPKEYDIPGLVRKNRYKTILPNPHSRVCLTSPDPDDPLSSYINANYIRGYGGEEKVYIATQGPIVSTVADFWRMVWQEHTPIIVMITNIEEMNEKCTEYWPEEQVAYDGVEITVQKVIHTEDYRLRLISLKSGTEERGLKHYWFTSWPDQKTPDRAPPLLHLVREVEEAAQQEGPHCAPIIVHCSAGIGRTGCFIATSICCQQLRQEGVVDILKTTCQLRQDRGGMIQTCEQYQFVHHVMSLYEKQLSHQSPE
Experiment: STEP46 biochemical assay (DiFMUP fluorescence phosphatase assay)
Conditions: DiFMUP 10 μM, read-out: STEP IC50
Method: STEP46 Biochemical Assays
Serial dilutions of compounds were performed in 100% DMSO and 1 uL of compounds were dispensed into 384-well black polystyrene plates (Corning, NY). Compounds were incubated with 24 uL of buffer containing 50 mM Hepes, 1 mM DTT, 0.02% Brij35, 1 ng/well purified STEP46 enzyme for 30 min at room temperature. The reaction was initiated by addition of 25 uL of DiFMUP (6, 8-difluoro-4-methylumbelliferyl phosphate) (InVitrogen, CA) with a final concentration of 10 μM and incubated at 27° C. for 90 min. Final DMSO concentration is 2%. Plates were read with florescence intensity at excitation/emission of 360/460 nm using a PheraStar plate reader (BMG Labtech, NC).
Data were expressed as percentage (%) inhibition of enzyme activity. 0% inhibition is defined as the RFUs (relative fluorescence units) in the absence of compounds and 100% inhibition is defined as RFUs in the absence of STEP46 enzyme. IC50 values of compounds with inhibitory activity against STEP46 were determined by GraphPad Prism (version 4.03) using four parameter logistic equation. Some compounds act as activators. For compounds showing STEP46 enzymatic activation, data are represented as percentage of inhibition but with negative values at three representative concentrations (25, 50 and 100 uM).

SMILES	IC50 [nM]
COc1ccc2nc(-c3cccnc3)nc(Nc3ccc4c(c3)OC(F)(F)C(F)(F)O4)c2c1 [Compound 322]	> 10000
COc1ccc2nc(-c3cccnc3)nc(Nc3ccc4c(c3)CCC4)c2c1 [Compound 306]	> 10000
Fc1ccc(Nc2nc(-c3cccnc3)nc3ccc(-c4ccccc4Cl)cc23)cc1Cl [Compound 636]	> 10000
CN(C)c1nc(-c2cccnc2)nc2ccc(-c3cccc(Cl)c3)cc12 [Compound 1333]	> 10000
CC(=O)c1ccc(-c2ccc3nc(-c4cccnc4)nc(N)c3c2)cc1 [Compound 1327]	> 10000
FC(F)Oc1cccc(Nc2nc(-c3cncnc3)nc3ccccc23)c1 [Compound 1211]	> 10000
COc1cccc(-c2ccc3nc(-c4cccnc4)nc(Nc4ccc(F)c(Cl)c4)c3c2)c1OC [Compound 644]	1000 to 10000
Fc1ccc(Nc2nc(-c3cnccn3)nc3ccccc23)cc1Cl [Compound 1219]	1000 to 10000
Cc1cc(Cl)cc2c(Nc3ccccc3C(=O)O)nc(-c3cnccn3)nc12 [Compound 1227]	1000 to 10000
CCNC(=O)c1sc(Nc2nc(-c3cccnc3)nc3ccc(OC)cc23)nc1-c1ccccc1 [Compound 1126]	1000 to 10000
CNc1nc(-c2cccnc2)nc2c(C)c(-c3cccc(C#N)c3)ccc12 [Compound 1453]	1000 to 10000
COc1ccc2nc(-c3cccnc3)nc(Nc3nc(-c4ccc(Br)cc4)cs3)c2c1 [Compound 415]	1000 to 10000
Fc1ccc(Nc2nc(-c3cccnc3)nc3ccc(-c4cccs4)cc23)cc1Cl [Compound 649]	1000 to 10000
Clc1ccc2c(Nc3ccc(Cl)c(Cl)c3)nc(-c3ccnnc3)nc2c1 [Compound 1204]	> 10000
FC(F)Oc1cccc(Nc2nc(-c3cnccn3)nc3ccccc23)c1 [Compound 1214]	1000 to 10000
Fc1cccc(-c2ccc3nc(-c4cccnc4)nc(Nc4ccc(F)c(Cl)c4)c3c2)c1 [Compound 634]	1000 to 10000

SMILES	IC50 [nM]
COc1ccc2nc(-c3cccnc3)nc(Nc3ccccc3C(=O)NCc3cccs3)c2c1 [Compound 884]	> 10000
CC(C)Oc1cccc(-c2ccc3nc(-c4cccnc4)nc(Nc4ccc(F)c(Cl)c4)c3c2)c1 [Compound 673]	1000 to 10000
COc1ccc2nc(-c3cccnc3)nc(Nc3nnc(-c4ccc(F)cc4)s3)c2c1 [Compound 423]	1000 to 10000
COc1ccc2nc(-c3ccnnc3)nc(Nc3ccccc3C(N)=O)c2c1 [Compound 1198]	1000 to 10000
COc1ccc(Cl)c(Nc2nc(-c3cccnc3)nc3ccc(OC)cc23)c1 [Compound 932]	1000 to 10000
CNc1nc(-c2cccnc2)nc2ccc(-c3cccc4sccc34)cc12 [Compound 1340]	1000 to 10000
CNc1nc(-c2cccnc2)nc2c(C)c(-c3cccc(F)c3)ccc12 [Compound 1449]	> 10000
COc1ccc2nc(-c3cccnc3)nc(Nc3cccc(-c4ccc(Cl)cc4)c3)c2c1 [Compound 427]	1000 to 10000
CNc1nc(-c2cccnc2)nc2cc(-c3cccc(C)c3)ccc12 [Compound 1361]	> 10000
COc1ccc2nc(-c3cccnc3)nc(Nc3ccccc3C(=O)NC(C)c3cccc(C(F)(F)F)c3)c2c1 (stereo not shown) [Compound 888]	> 10000
CN(C)c1nc(-c2cccnc2)nc2ccc(-c3ccccc3[N+](=O)[O-])cc12 [Compound 1334]	> 10000
FC(F)Oc1cccc(Nc2nc(-c3ccnnc3)nc3ccccc23)c1 [Compound 1183]	1000 to 10000
Nc1nc(-c2cccnc2)nc2cc(-c3cc(F)ccc3F)ccc12 [Compound 1395]	1000 to 10000
COc1ccc2nc(-c3cccnc3)nc(Nc3ccccc3Br)c2c1 [Compound 437]	1000 to 10000
COc1ccc(-c2ccc3c(Nc4ccc(F)c(Cl)c4)nc(-c4cccnc4)nc3c2)cc1 [Compound 680]	1000 to 10000

More lines, now with the values ahead:

IC50 [nM]	SMILES
1000 to 10000	COc1ccc2nc(-c3ccnnc3)nc(Nc3ccc(F)c(Cl)c3)c2c1 [Compound 1185]
< 1000	Cc1cccc(-c2ccc3nc(-c4cccnc4)nc(Nc4ccc(F)c(Cl)c4)c3c2)c1 [Compound 632]
1000 to 10000	COc1ccc2nc(-c3cccnc3)nc(Nc3nc(-c4ccccc4OC)cs3)c2c1 [Compound 436]
1000 to 10000	CNc1nc(-c2cccnc2)nc2ccc(-c3ccc(F)c(C(F)(F)F)c3)cc12 [Compound 1401]
< 1000	CCOc1ccc2nc(-c3cccnc3)nc(Nc3ccc4c(c3)NC(=O)CO4)c2c1 [Compound 336]
1000 to 10000	FC(F)Oc1cc(Cl)cc(Nc2nc(-c3cccnc3)nc3ccccc23)c1 [Compound 1213]
1000 to 10000	Clc1cc(Cl)cc(Nc2nc(-c3cnccn3)nc3cc(Cl)ccc23)c1 [Compound 1146]
1000 to 10000	Cc1cccc(CNc2nc(-c3cccnc3)nc3cc(-c4cc(F)ccc4F)ccc23)n1 [Compound 1430]
< 1000	Fc1ccc(Nc2nc(-c3cccnc3)nc3cc(-c4ccccc4F)ccc23)cc1Cl [Compound 687]
1000 to 10000	CNc1nc(-c2cccnc2)nc2c(C)c(-c3cc(F)ccc3F)ccc12 [Compound 1450]
1000 to 10000	CNc1nc(-c2cccnc2)nc2cc(C)c(-c3ccc(OC)cc3)cc12 [Compound 1420]
< 1000	N#Cc1cccc(Nc2nc(-c3cccnc3)nc3cc(-c4ccc(F)cc4)ccc23)c1 [Compound 709]
< 1000	COc1cc(OC)cc(-c2ccc3nc(-c4cccnc4)nc(Nc4ccc(F)c(Cl)c4)c3c2)c1 [Compound 642]
1000 to 10000	CCOc1ccc2nc(-c3cccnc3)nc(Nc3nc(-c4ccc(Cl)cc4)cs3)c2c1 [Compound 467]
1000 to 10000	Fc1ccc(Nc2nc(-c3ccnnc3)nc3cc(Cl)ccc23)cc1Cl [Compound 1201]
1000 to 10000	CNc1nc(-c2cccnc2)nc2cc(-c3ccc(C(C)=O)cc3)ccc12 [Compound 1351]
1000 to 10000	CNc1nc(-c2cccnc2)nc2ccc(-c3cc(OC)cc(OC)c3)cc12 [Compound 1357]
1000 to 10000	CNc1nc(-c2cccnc2)nc2cc(-c3cccc(OC)c3)c(C)cc12 [Compound 1412]
1000 to 10000	Fc1ccc(-c2ccc3c(Nc4ccc(F)c(Cl)c4)nc(-c4cccnc4)nc3c2)cc1F [Compound 674]
1000 to 10000	COc1ccc2nc(-c3ccnnc3)nc(Nc3ccc(Cl)c(Cl)c3)c2c1 [Compound 1184]

IC50 [nM]	SMILES
1000 to 10000	FC(F)(F)Oc1cccc(Nc2nc(-c3ccnnc3)nc3ccccc23)c1 [Compound 1182]
1000 to 10000	CNc1nc(-c2cccnc2)nc2ccc(-c3cccc(OC)c3)cc12 [Compound 1248]
< 1000	CN(C)c1ccc(-c2ccc3c(Nc4ccc(F)c(Cl)c4)nc(-c4cccnc4)nc3c2)cc1 [Compound 694]
1000 to 10000	Cc1cc(Cl)cc2c(Nc3cccc(C#N)c3)nc(-c3cnccn3)nc12 [Compound 1228]
< 1000	COc1ccc2nc(-c3cnccn3)nc(Nc3cc(Cl)cc(Cl)c3)c2c1 [Compound 1194]
1000 to 10000	CNc1nc(-c2cccnc2)nc2ccc(-c3ccc4c(cnn4C)c3)cc12 [Compound 1366]
1000 to 10000	COc1ccc2nc(-c3cnccn3)nc(Nc3ccc(Cl)c(Cl)c3)c2c1 [Compound 1234]
1000 to 10000	Clc1cc(Cl)cc(Nc2nc(-c3cnccn3)nc3ccc(Cl)cc23)c1 [Compound 1161]
1000 to 10000	CNc1nc(-c2cccnc2)nc2cc(-c3cccc(F)c3)ccc12 [Compound 1359]
< 1000	COc1ncccc1-c1ccc2nc(-c3cccnc3)nc(Nc3ccc(F)c(Cl)c3)c2c1 [Compound 650]
1000 to 10000	Fc1ccc(Nc2nc(-c3cccnc3)nc3ccc(-c4cccc(OC(F)(F)F)c4)cc23)cc1Cl [Compound 658]
1000 to 10000	CNc1nc(-c2cccnc2)nc2cc(C)c(-c3cccc(OC)c3)cc12 [Compound 1419]
1000 to 10000	CCCOCCOc1cccc(-c2ccc3nc(-c4cccnc4)nc(NC)c3c2)c1 [Compound 1497]
1000 to 10000	CNc1nc(-c2cccnc2)nc2cc(-c3cccc(F)c3)c(C)cc12 [Compound 1402]
< 1000	N#Cc1cccc(-c2ccc3c(Nc4ccc(F)c(Cl)c4)nc(-c4cccnc4)nc3c2)c1 [Compound 686]
< 1000	Cc1cc(Cl)cc2c(Nc3cccc(OC(F)F)c3)nc(-c3ccnnc3)nc12 [Compound 1165]
< 1000	COc1ccc2nc(-c3cccnc3)nc(Nc3nc(-c4cccc(Cl)c4)cs3)c2c1 [Compound 430]
< 1000	CCOc1cccc(-c2ccc3nc(-c4cccnc4)nc(Nc4ccc(F)c(Cl)c4)c3c2)c1 [Compound 657]
< 1000	CCOc1ccc(-c2ccc3nc(-c4cccnc4)nc(Nc4ccc(F)c(Cl)c4)c3c2)cn1 [Compound 661]
